Reference: patent US11504385B2, “Proteolysis targeting chimeric molecule, preparation method, and application” (CHINA PHARMACEUTICAL UNIVERSITY, priority 2019, dated 2022)

Legend:
Type in all cases: cell-based
HCT116 = experiment: Cell viability test (CellTiter-Glo), HCT116; settings: HCT116, non-BCR-ABL dependent tumor cell line
Description: (§1) The operation method of the K562 cell viability test is as follows:
(§2) 50 μL of K562, MCF-7, HCT116 and A549 cell suspensions were added to a 96-well plate and incubated for 12 hours. 10 μL of compound was added to the well and incubated for 48 hours. Operation was performed according to a CellTiter-Glo® luminescent cell viability assay kit (Promega). Nonlinear regression analysis data in GraphPad Prism 6 was used.

ABL [1] = target: T1, ABL (Homo sapiens, UniProt P00519); experiment: Simulated light control, ABL level in K562 cells (immunoblotting); settings: 100 nM for 24 hours, then fresh medium
T1 construct: degradation effect of the compound 4C on c-ABL and BCR-ABL proteins in K562 cells; endogenous in cells; host or cells: K562
Description: (§3) In order to simulate a light control process, the researchers treated K562 cells with the compound 4C-trans for 24 hours. Then the cells were transferred to fresh media and divided into 2 groups: one group was placed in a dark room (VIS group), and the other group was irradiated with UV after 0, 4, 8, 12, 16, and 24 hours of incubation to simulate the photo-isomerization process (UV group).
(§4) The specific operation method for simulating light control is as follows:
(§5) The compound 4C-trans at a final concentration of 100 nM was added to K562 cells, and the cells were incubated at 37° C. for 24 hours. The medium was washed off, and the cells were washed 2 times with 1*PBS. Then the cells were transferred to fresh 1640 medium (10% FBS, 1*glutamine) for culture, and divided into two groups: one group was placed in a dark room, and the other group was irradiated with UV-C light for 30 min every 4 hours. The cells were collected after transfer and incubation for 0, 4, 8, 16, and 24 hours respectively, and post-treatment of the cells was the same as that of immunoblotting.

BCR-ABL fusion protein [2] = target: T2, BCR-ABL fusion protein (Homo sapiens, UniProt P00519+P11274+Q96SW2, E27K); experiment: Immunoblotting, degradation of BCR-ABL protein in K562 cells
T2 construct: By using BCR-ABL and CRBN positive K562 cell lines; endogenous in cells; host or cells: K562
Description: (§6) Initially, researchers synthesized a 2C compound (FIG. 2A), which is a small molecule with the shortest joining chain (n=1). By using BCR-ABL and CRBN positive K562 cell lines, degradation of ABL and BCR-ABL proteins in the cells under the action of the compound was tested by immunoblotting. […] Then, the researchers tried to extend the joining chain (increasing the value of n).
(§7) In order to test the degradation effect of the compound 4C on c-ABL and BCR-ABL proteins in K562 cells, the researchers performed an immunoblotting experiment. […] In order to exclude the possibility that the compound 4C affected the ABL gene to generate false positive expression, the researchers used RT-qPCR in K562 cells to study the expression of the ABL gene.
The operation method of the immunoblotting experiment is as follows: […]
(§8) The medium was aspirated from the culture; the cells were washed with 1*PBS; and the cells were aspirated.
(§9) A weak RIPA lysate (100 μL) was added to lyse the cells for 40 min.
(§10) The sample was centrifuged at 13000 rpm, 4° C. for 15 min; 80 μl of supernatant was taken and added to 20 μl of loading buffer; the reaction solution was heated at 100° C. for 8 minutes; and the sample was placed on ice and cooled.
(§11) […] of sample was loaded on 10% SDS-PAGE gel. The sample was transferred to a PVDF membrane by a wet process.
(§12) A membrane was placed in 25 ml of blocking buffer and blocked at room temperature for 1 hour.
(§13) The membrane and the primary antibody (according to the appropriate dilution and diluent recommended in the product description) were placed in 10 ml of primary antibody dilution buffer, and incubated overnight at 4° C. and gently shaken from time to time.
(§14) Anti-rabbit IgG, HRP-linked Antibody (#7074, in a ratio of 1:2000) and anti-biotin, HRP-linked Antibody (#7075, in a ratio of 1:1000-1:3000) are diluted with 10 ml of blocking buffer to detect biotinylated protein standards. The membrane was incubated with the diluent, and gently shaken and incubated at room temperature for 1 hour.
(§15) A developer solution and the membrane were incubated together for 1 minute, the excess solution was discarded (the membrane remained moist) and the membrane was exposed.
(§16) Next, we tested the difference in the activity of different configurations of compound 4C in degradation of ABL and BCR-ABL proteins. […] The operation method of the immunoblotting experiment is the same as above.

K562 cells [3] = experiment: Anti-K562 cell proliferation activity test (CCK-8); settings: Homo sapiens, 48 hours, read-out: median inhibitory concentration (IC50)
Description: The operation method of the anti-K562 cell proliferation activity test is as follows:
100 μL of K562 cell suspension and 10 μL of test compounds of different concentrations were prepared in a 96-well plate. The culture plate was placed in an incubator for incubation for 48 hours (37° C., 5% CO2). 10 μL of CCK-8 solution was added to each well. The culture plate was placed in an incubator for incubation for 1-4 hours. The absorbency was measured at 450 nm with a microplate reader. […] (%)=[A (with drug)−A (blank)]/[A (with 0 drug)−A (blank)]×100, wherein:
A (with drug): the absorbency of the wells containing cells, CCK-8 solution and drug solution
A (blank): the absorbency of wells containing medium and CCK-8 solution but no cells
A (with 0 drug): the absorbency of the wells containing cells and CCK-8 solution but no drug solution

BCR-ABL fusion protein [4] = target: T2, BCR-ABL fusion protein; experiment: Simulated light control, BCR-ABL level in K562 cells (immunoblotting); settings: 100 nM for 24 hours, then fresh medium
Description: as §3, §4, §5

A549 = experiment: Cell viability test (CellTiter-Glo), A549; settings: A549, non-BCR-ABL dependent tumor cell line
Description: as §1, §2

K562 cell line = experiment: Cell viability test (CellTiter-Glo), K562
Description: as §1, §2

HEK293T = experiment: Cell viability test, HEK293T; settings: non-BCR-ABL dependent cell line
ABL [5] = target: T1, ABL; experiment: Immunoblotting, degradation of ABL protein in K562 cells
Description: as §6, §7
The operation method of the immunoblotting experiment is as follows:
K562 cells after administration were incubated for 24 hours.
as §8, §9, §10, §11, §12, §13, §14, §15, §16

K562 cells [6] = experiment: Time-effect experiment, apoptosis of K562 cells; settings: 250 nM, after 48 hours
[7] = UV-C 30 min every 4 hours (UV group)
[8] = dark room (VIS group), 0-24 hours

T1 sequence (P00519 whole entry): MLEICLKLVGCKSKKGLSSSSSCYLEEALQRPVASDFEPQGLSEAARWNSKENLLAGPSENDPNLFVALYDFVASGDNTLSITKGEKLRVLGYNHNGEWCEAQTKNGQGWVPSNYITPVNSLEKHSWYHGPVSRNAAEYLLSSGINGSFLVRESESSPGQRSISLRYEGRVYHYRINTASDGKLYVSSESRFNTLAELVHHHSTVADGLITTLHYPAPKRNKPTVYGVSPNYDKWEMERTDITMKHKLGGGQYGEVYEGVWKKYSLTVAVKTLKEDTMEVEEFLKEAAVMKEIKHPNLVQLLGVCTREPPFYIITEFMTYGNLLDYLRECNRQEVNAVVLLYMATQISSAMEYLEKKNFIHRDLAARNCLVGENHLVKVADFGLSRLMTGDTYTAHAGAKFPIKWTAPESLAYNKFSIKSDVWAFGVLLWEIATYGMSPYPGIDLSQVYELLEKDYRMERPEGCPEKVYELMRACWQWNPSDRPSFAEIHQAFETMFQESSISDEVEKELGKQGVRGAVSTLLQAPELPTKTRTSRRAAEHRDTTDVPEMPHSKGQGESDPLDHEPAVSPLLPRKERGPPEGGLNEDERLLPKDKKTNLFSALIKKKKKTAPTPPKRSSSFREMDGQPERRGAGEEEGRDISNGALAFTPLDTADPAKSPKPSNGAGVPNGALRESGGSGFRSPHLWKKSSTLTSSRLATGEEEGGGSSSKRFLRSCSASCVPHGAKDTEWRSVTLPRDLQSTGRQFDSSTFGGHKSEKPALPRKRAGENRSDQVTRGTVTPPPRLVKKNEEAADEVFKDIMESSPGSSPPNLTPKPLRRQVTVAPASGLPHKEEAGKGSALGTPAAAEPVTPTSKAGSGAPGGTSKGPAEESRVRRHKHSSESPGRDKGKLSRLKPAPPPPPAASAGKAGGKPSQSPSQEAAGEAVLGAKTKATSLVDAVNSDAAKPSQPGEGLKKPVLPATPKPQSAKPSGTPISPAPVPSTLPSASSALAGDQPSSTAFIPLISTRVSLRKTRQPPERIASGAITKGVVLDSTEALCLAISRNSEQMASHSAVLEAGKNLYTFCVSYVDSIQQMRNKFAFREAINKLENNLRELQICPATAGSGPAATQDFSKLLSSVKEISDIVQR

Q: Which “effect on cell viability” value (HCT116) does the source give for Cc1nc(Nc2ncc(C(=O)Nc3c(C)cccc3Cl)s2)cc(N2CCN(CCCCOc3ccc(/N=N/c4ccc(C(=O)Nc5cccc6c5CN(C5CCC(=O)NC5=O)C6=O)cc4)cc3)CC2)n1 (stereo not drawn) [Compound 4C, (E)-N-(2-chloro-6-methylphenyl)-2-((6-(4-(4-(4-((4-((2-(2,6-dioxopiperidin-3-yl)-1-oxoisoindolin-4-yl)carbamoyl)phenyl)diazenyl)phenoxy)butyl)piperazin-1-yl)-2-methylpyrimidin-4-yl)amino)thiazole-5-carboxamide] here?
A: Its value is “hardly affects”.

Q: What about the “ABL level after washout” value (ABL [1]; [7]) of the same molecule?
A: Its value is “increased over time”.

Q: What about the “ABL level after washout” value (ABL [1]; [8]) of the same molecule?
A: Its value is “almost disappeared”.

Q: And the “inhibition of expression of BCR-ABL and/or CRBN protein” value (BCR-ABL fusion protein [2]; BCR-ABL and/or CRBN positive leukemia K562 cells, to varying degrees)?
A: The value was “can inhibit the expression”.

Q: And the “activity in degrading the BCR-ABL fusion protein, compared among the PROTAC molecules” value (BCR-ABL fusion protein [2]; K562 cells)?
A: The value was “best activity”.

Q: What about the “degradation of BCR-ABL fusion protein, dose-effect” value (BCR-ABL fusion protein [2]; K562 cells, 25 nM, 24 hours of incubation) of the same molecule?
A: Its value is “slightly degrade”.

Q: What about the “time at which BCR-ABL reached the maximum degradation” value (BCR-ABL fusion protein [2]; K562 cells, 250 nM) of the same molecule?
A: The value was 32 h.

Q: What about the “BCR-ABL level, time-effect” value (BCR-ABL fusion protein [2]; K562 cells, 250 nM, after 4 hours) of the same molecule?
A: Its value is “slight decrease”.

Q: And the “BCR-ABL level, time-effect” value (BCR-ABL fusion protein [2]; K562 cells, 250 nM, after 10 hours)?
A: Its value is “significantly degraded”.

Q: What about the “BCR-ABL level, time-effect” value (BCR-ABL fusion protein [2]; K562 cells, 250 nM, after 10 hours, listed as 4C-trans) of the same molecule?
A: The value was “significantly reduced”.

Q: What about the “BCR-ABL fusion protein degraded, time-effect” value (BCR-ABL fusion protein [2]; K562 cells, 250 nM, after 32 hours) of the same molecule?
A: The value was “more than 90%”.

Q: What about the “BCR-ABL degraded, dose-effect” value (BCR-ABL fusion protein [2]; K562 cells, 500 nM, 24 hours of incubation) of the same molecule?
A: Its value is “more than 80%”.

Q: And the IC50 (K562 cells [3])?
A: Its IC50 is 68 nM.

Q: And the “BCR-ABL level after washout” value (BCR-ABL fusion protein [4]; [7])?
A: Its value is “increased over time”.

Q: And the “BCR-ABL fusion protein level after washout” value (BCR-ABL fusion protein [4]; [8])?
A: Its value is “remained at a low level”.

Q: What about the “effect on cell viability” value (A549) of the same molecule?
A: The value was “hardly affects”.

Q: What about the EC50 (K562 cell line; Homo sapiens, K562 cells, 48 hours, CellTiter-Glo, read-out: median effective concentration (EC50)) of the same molecule?
A: The EC50 was 28 nM.

Q: And the “selectivity for the BCR-ABL dependent K562 cell line” value (K562 cell line; versus A549, HCT116, HEK293T, MCF-7)?
A: Its value is “good selectivity”.

Q: What about the “effect on cell viability” value (HEK293T) of the same molecule?
A: The value was “hardly affects”.

Q: What about the “time at which ABL reached the maximum degradation” value (ABL [5]; 250 nM) of the same molecule?
A: The value was 32 h.

Q: What about the “ABL level, time-effect” value (ABL [5]; 250 nM, 4 hours of incubation) of the same molecule?
A: Its value is “significantly reduced”.

Q: And the “c-ABL level, time-effect” value (ABL [5]; 250 nM, after 10 hours)?
A: The value was “significantly degraded”.

Q: And the “ABL protein degraded, dose-effect” value (ABL [5]; 500 nM, 24 hours of incubation)?
A: The value was “almost all”.

Q: And the “apoptosis of K562 cells” value (K562 cells [6])?
A: Its value is “obvious apoptosis”.
